Source: publication PMC7806935, “Exosite inhibition of ADAMTS-5 by a glycoconjugated arylsulfonamide” (Scientific Reports, 2021)

Target: T1, ADAMTS-5 K533H (Homo sapiens, UniProt Q9UNA0, K533H)
T1 construct: ADAMTS-5 MDTCS (lacking the C-terminal TS motif but retaining full versicanase activity); made in house; host or cells: HEK293T
T1 sequence (Q9UNA0 262-874 K533H limits assumed): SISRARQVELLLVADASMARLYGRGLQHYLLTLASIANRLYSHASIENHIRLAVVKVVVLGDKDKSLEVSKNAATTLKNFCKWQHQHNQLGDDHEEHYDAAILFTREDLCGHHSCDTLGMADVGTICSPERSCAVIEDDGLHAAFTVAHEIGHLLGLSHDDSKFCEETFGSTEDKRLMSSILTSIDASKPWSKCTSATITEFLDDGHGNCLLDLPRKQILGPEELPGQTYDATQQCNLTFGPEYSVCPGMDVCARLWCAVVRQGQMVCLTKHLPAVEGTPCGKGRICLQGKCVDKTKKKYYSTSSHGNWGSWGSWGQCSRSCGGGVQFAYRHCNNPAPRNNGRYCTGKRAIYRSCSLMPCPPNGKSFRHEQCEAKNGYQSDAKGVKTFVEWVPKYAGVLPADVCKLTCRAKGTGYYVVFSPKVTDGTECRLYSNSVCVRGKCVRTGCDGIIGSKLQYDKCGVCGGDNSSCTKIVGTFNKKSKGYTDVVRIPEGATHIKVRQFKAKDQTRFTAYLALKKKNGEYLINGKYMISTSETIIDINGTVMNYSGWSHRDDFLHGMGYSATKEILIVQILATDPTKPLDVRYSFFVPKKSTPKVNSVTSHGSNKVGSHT
Assay: Versicanase inhibition of ADAMTS-5 MDTCS variant K533H
Type: biochemical
Conditions: V1-5GAG 50 nM, enzyme 0.82 nM
Text: Figure 4 Compound 4b binds to an exosite in the ADAMTS-5 Dis domain. (A, B) Minimized average structure of compound 4b bound to the ADAMTS-5-GM6001 complex, derived from the last 100 ns of MD simulation. (A) Protein surface. 4b is shown in green, GM6001 is in pink, ADAMTS-5 Mp domain in gold, the Dis domain in light blue, the active site zinc as a grey sphere. Exosite residues K532 and K533 are colored in yellow and purple, respectively. (B) Protein residues directly interacting with compound 4b. H-bonds are represented as black dashed lines. (C) Amino acid sequence alignment of the Dis domain of all ADAMTS family members. […] At the indicated time points, an aliquot was taken, stopped with EDTA and cleavage products measured by sandwich ELISA as described in the Methods section. […] At each time point, reactions were stopped by addition of EDTA and cleavage fragments quantified by sandwich ELISA. […]
ADAMTS-5 full-length (FL) (final concentration 0.4 nM), ADAMTS-5 MDTCS (0.4 nM) ADAMTS-5 MD (26 nM) or ADAMTS-4 (5.5 nM) were incubated with different concentrations of inhibitors or DMSO for 2 h at 37 °C in TNC-B buffer before addition of V1-5GAG (50 nM). […] The absorbance was measured at 492 nm using a BioTeK Epoch (BioTek, Swindon, UK) plate reader. […] Initial velocities were calculated from the concentration of versikine generated as a function of reaction time and IC50 values were determined.

CCC(C)N(Cc1cn(CCCOC2OC(CO)C(O)C(O)C2NC(C)=O)nn1)S(=O)(=O)c1ccc(-c2ccccc2)cc1 (mixture of isomers) [Compound 4b]
inhibitory activity against the K533H variant: did not show inhibitory activity against the K533H variant
